Reference: ChEMBL document CHEMBL1201862, “PubChem BioAssay data set” (2004)
Structures can show the parent of a compound that is named as a salt.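 These data come from cells grown in 96-well plates and exposed to compound for 48 hours at five concentrations. The concentration for 50% growth inhibition is given as GI50.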 The source made the active and inactive calls. No stated cut-off is given here; in the data, active = GI50 up to about 1.1 µM and inactive = higher.

Experiments:
Test in all cases: NCI-60 cell line screen, 48 h
[1] = tested on: ACHN
[2] = tested on: OVCAR-5
[3] = tested on: SK-MEL-28
[4] = tested on: 786-0
[5] = tested on: SK-MEL-5
[6] = tested on: SR
[7] = tested on: HOP-62
[8] = tested on: MDA-N
[9] = tested on: TK-10
[10] = tested on: SK-MEL-2
[11] = tested on: OVCAR-3
[12] = tested on: U-251
[13] = tested on: HL-60
[14] = tested on: M14
[15] = tested on: UO-31
[16] = tested on: NCI-H226
[17] = tested on: OVCAR-8
[18] = tested on: KM12
[19] = tested on: DU-145
[20] = tested on: RPMI-8226

Row | Structure (SMILES) | GI50 [1] | GI50 [2] | GI50 [3] | GI50 [4] | GI50 [5] | GI50 [6] | GI50 [7] | GI50 [8] | GI50 [9] | GI50 [10] | GI50 [11] | GI50 [12] | GI50 [13] | GI50 [14] | GI50 [15] | GI50 [16] | GI50 [17] | GI50 [18] | GI50 [19] | GI50 [20]
1 | Cc1ccc(S(=O)(=O)N/N=C2/C(=O)Nc3c(Cl)cc(Cl)cc32)cc1 | > 100 µM (inactive) | > 100 µM (inactive) | > 100 µM (inactive) | > 100 µM (inactive) | 59.6 µM (inactive) | 34.4 µM (inactive) | > 100 µM (inactive) | 68.9 µM (inactive) | 79.1 µM (inactive) | > 100 µM (inactive) | 60.3 µM (inactive) | 58.1 µM (inactive) | 36.9 µM (inactive) | 73.5 µM (inactive) | 41.6 µM (inactive) | > 100 µM (inactive) | 38.8 µM (inactive) | > 100 µM (inactive) | – | –
2 | COCO[C@@H]1C[C@H]2C(=O)Nc3ccccc3C(=O)N2C1 | 50.6 µM (inactive) | 61.5 µM (inactive) | > 100 µM (inactive) | > 100 µM (inactive) | 24.1 µM (inactive) | – | 39.8 µM (inactive) | 39.2 µM (inactive) | 71.4 µM (inactive) | 46.6 µM (inactive) | – | 45.7 µM (inactive) | – | > 100 µM (inactive) | 27 µM (inactive) | 3.91 µM (inactive) | > 100 µM (inactive) | > 100 µM (inactive) | 48.8 µM (inactive) | –
3 | CCCCCCCCCCCCCCCCOP(=O)([O-])OCC[N+](C)(C)C1CC(C)(C)N(O)C(C)(C)C1 | > 100 µM (inactive) | > 100 µM (inactive) | – | > 100 µM (inactive) | > 100 µM (inactive) | > 100 µM (inactive) | > 100 µM (inactive) | – | > 100 µM (inactive) | > 100 µM (inactive) | > 100 µM (inactive) | > 100 µM (inactive) | – | > 100 µM (inactive) | > 100 µM (inactive) | > 100 µM (inactive) | > 100 µM (inactive) | > 100 µM (inactive) | > 100 µM (inactive) | –
4 | N#CC12C(=O)N3C(=NC(c4ccccc4)NC3c3ccccc3)C1(C#N)C(c1ccccc1)NC1=C2CCCC1 (configuration not stated) | > 100 µM (inactive) | > 100 µM (inactive) | > 100 µM (inactive) | > 100 µM (inactive) | > 100 µM (inactive) | – | > 100 µM (inactive) | > 100 µM (inactive) | > 100 µM (inactive) | > 100 µM (inactive) | > 100 µM (inactive) | > 100 µM (inactive) | > 100 µM (inactive) | > 100 µM (inactive) | > 100 µM (inactive) | > 100 µM (inactive) | > 100 µM (inactive) | > 100 µM (inactive) | > 100 µM (inactive) | > 100 µM (inactive)
5 | Cc1[nH]nc(C(=O)N/N=C/c2ccccc2Cl)c1/N=N\N(C)C | > 54.6 µM (inactive) | 18 µM (inactive) | > 100 µM (inactive) | 5.04 µM (inactive) | 14.6 µM (inactive) | 0.171 µM (active) | 1.34 µM (inactive) | – | 56.6 µM (inactive) | > 100 µM (inactive) | 20.8 µM (inactive) | 14.8 µM (inactive) | 4.82 µM (inactive) | > 100 µM (inactive) | > 57.8 µM (inactive) | > 100 µM (inactive) | 7.98 µM (inactive) | 2.86 µM (inactive) | 4.28 µM (inactive) | 2.51 µM (inactive)
6 | NC(=O)NC1C(c2ccccc2)=C1c1ccccc1 | 10.6 µM (inactive) | 23.2 µM (inactive) | 17.1 µM (inactive) | 22.4 µM (inactive) | 11.1 µM (inactive) | – | 36.4 µM (inactive) | 14.5 µM (inactive) | 18 µM (inactive) | – | 28.9 µM (inactive) | 13.9 µM (inactive) | 31.6 µM (inactive) | 19.1 µM (inactive) | 13.6 µM (inactive) | 5.08 µM (inactive) | 12.5 µM (inactive) | 19.2 µM (inactive) | 41.3 µM (inactive) | 7.21 µM (inactive)
7 | Clc1ccc(CN2COc3c(cc(Cl)c4cccnc34)C2)cc1 | 1.74 µM (inactive) | 2.24 µM (inactive) | 2.57 µM (inactive) | 2.74 µM (inactive) | 2.26 µM (inactive) | 1.91 µM (inactive) | 1.5 µM (inactive) | – | 4.57 µM (inactive) | 1.85 µM (inactive) | 1.99 µM (inactive) | 2.32 µM (inactive) | 0.546 µM (active) | 1.68 µM (inactive) | 0.649 µM (active) | 4.06 µM (inactive) | 2.04 µM (inactive) | 2.37 µM (inactive) | – | 1.16 µM (inactive)
8 | N#Cc1cc(-c2nc3ccc(F)cc3s2)ccc1N | > 100 µM (inactive) | > 100 µM (inactive) | – | > 100 µM (inactive) | > 100 µM (inactive) | – | 72.1 µM (inactive) | 22.1 µM (inactive) | > 100 µM (inactive) | – | > 100 µM (inactive) | 63 µM (inactive) | > 100 µM (inactive) | > 100 µM (inactive) | > 100 µM (inactive) | > 100 µM (inactive) | > 100 µM (inactive) | > 100 µM (inactive) | > 100 µM (inactive) | > 100 µM (inactive)
9 | Clc1cc(OCc2nn3c(Cc4ccccc4)nnc3s2)ccc1OCc1nn2c(Cc3ccccc3)nnc2s1 | 24.2 µM (inactive) | 51.5 µM (inactive) | 42.2 µM (inactive) | 19.5 µM (inactive) | 25.4 µM (inactive) | 35 µM (inactive) | 31.8 µM (inactive) | – | 29.4 µM (inactive) | > 100 µM (inactive) | 29.9 µM (inactive) | 21.6 µM (inactive) | 50.2 µM (inactive) | 87.7 µM (inactive) | 39.4 µM (inactive) | 54.6 µM (inactive) | 20.7 µM (inactive) | 79.8 µM (inactive) | 29.6 µM (inactive) | 49.7 µM (inactive)
10 | CCC(O)c1ccc(/N=C/c2ccccc2O)cc1 (configuration not stated) | > 100 µM (inactive) | > 100 µM (inactive) | > 100 µM (inactive) | > 100 µM (inactive) | > 100 µM (inactive) | 90.2 µM (inactive) | > 100 µM (inactive) | – | > 100 µM (inactive) | > 100 µM (inactive) | > 100 µM (inactive) | > 100 µM (inactive) | > 100 µM (inactive) | > 100 µM (inactive) | > 100 µM (inactive) | > 100 µM (inactive) | – | > 100 µM (inactive) | > 100 µM (inactive) | > 100 µM (inactive)
11 | CN(C)CCC=C1c2ccccc2C=Cc2ccccc21 [CYCLOBENZAPRINE HYDROCHLORIDE] | 17.2 µM (inactive) | 15 µM (inactive) | 16.1 µM (inactive) | 16.1 µM (inactive) | 14 µM (inactive) | 17.9 µM (inactive) | 16.5 µM (inactive) | – | 16.2 µM (inactive) | 16.3 µM (inactive) | 15.5 µM (inactive) | 16.3 µM (inactive) | – | 15.8 µM (inactive) | 15.8 µM (inactive) | 0.0374 µM (active) | 16 µM (inactive) | 18.5 µM (inactive) | 18 µM (inactive) | 18.3 µM (inactive)
12 | O=C1CCC2SC1CCC2=O | > 100 µM (inactive) | > 100 µM (inactive) | > 100 µM (inactive) | > 100 µM (inactive) | > 100 µM (inactive) | – | > 100 µM (inactive) | – | > 100 µM (inactive) | > 100 µM (inactive) | > 100 µM (inactive) | > 100 µM (inactive) | > 100 µM (inactive) | > 100 µM (inactive) | > 100 µM (inactive) | > 100 µM (inactive) | > 100 µM (inactive) | > 100 µM (inactive) | > 100 µM (inactive) | –
13 | COc1ccc(-c2c(-c3ccc(OC)cc3)n3c(=O)n(C)c(=O)n23)cc1 | 67.1 µM (inactive) | – | > 100 µM (inactive) | > 100 µM (inactive) | > 100 µM (inactive) | – | 22.7 µM (inactive) | > 10 µM (inactive) | 33.3 µM (inactive) | 43.2 µM (inactive) | 18.2 µM (inactive) | > 100 µM (inactive) | – | > 100 µM (inactive) | 32.3 µM (inactive) | 60.4 µM (inactive) | 17.6 µM (inactive) | > 100 µM (inactive) | 15.6 µM (inactive) | 76.4 µM (inactive)
14 | CN(/N=C/c1ccccn1)C1=NCCCN1 | > 100 µM (inactive) | > 100 µM (inactive) | > 100 µM (inactive) | > 100 µM (inactive) | > 100 µM (inactive) | > 100 µM (inactive) | > 100 µM (inactive) | > 100 µM (inactive) | > 100 µM (inactive) | > 100 µM (inactive) | > 100 µM (inactive) | > 100 µM (inactive) | > 100 µM (inactive) | > 100 µM (inactive) | > 100 µM (inactive) | > 100 µM (inactive) | > 100 µM (inactive) | > 100 µM (inactive) | – | > 100 µM (inactive)
15 | CCOC(=O)c1cc(=O)c2cccc3c2n1CCS3 | > 100 µM (inactive) | > 100 µM (inactive) | > 100 µM (inactive) | > 100 µM (inactive) | > 100 µM (inactive) | – | > 100 µM (inactive) | > 100 µM (inactive) | > 100 µM (inactive) | > 100 µM (inactive) | > 100 µM (inactive) | > 100 µM (inactive) | > 100 µM (inactive) | > 100 µM (inactive) | 77.8 µM (inactive) | > 100 µM (inactive) | > 100 µM (inactive) | > 100 µM (inactive) | > 100 µM (inactive) | –
